# Data published in patent US11839679B2, “Gamma-diketones for treatment and prevention of aging skin and wrinkles” (BioSplice Therapeutics, Inc., priority 2014, dated 2023).
# Tested on: fine lines, wrinkles in the outer canthus of the eyes (crow's feet area)
# Assay: Panelist self-assessment questionnaire, Example 1
# Format: in vivo, human
# Conditions: for Q2 appearance of my skin around either of my eyes, Average Score: Score 1 (Better) to 5 (Worse); for Q4 any discomfort, other than slight tingling, in the treated area during the study, Average Score: Score 1 (No) to 5 (Yes, everyday lasting more than an hour); for Q1 My wrinkles in the eye area have improved, Average Score: Score 1 (Strongly agree) to 5 (Strongly disagree); for Q3 how do you feel about the treated area surrounding your eyes and the appearance of wrinkles, Average Score: Score 1 (Very Satisfied) to 5 (Very Dissatisfied); for Q2 appearance of my skin around either of my eyes, % Responders Score 1: Score 1 = Better; for Q4 any discomfort, other than slight tingling, in the treated area during the study, % Responders Score 1: Score 1 = No; for Q1 My wrinkles in the eye area have improved, % Responders Score 1: Score 1 = Strongly agree; for Q3 how do you feel about the treated area surrounding your eyes and the appearance of wrinkles, % Responders Score 1: Score 1 = Very Satisfied; for Q1 My wrinkles in the eye area have improved, % Responders Score 2: Score 2 = Agree; for Q2 appearance of my skin around either of my eyes, % Responders Score 2: Score 2 = Little better; for Q3 how do you feel about the treated area surrounding your eyes and the appearance of wrinkles, % Responders Score 2: Score 2 = Satisfied; for Q4 any discomfort, other than slight tingling, in the treated area during the study, % Responders Score 2: Score 2 = Yes, occasional discomfort lasting less than an hour; for Q1 My wrinkles in the eye area have improved, % Responders Score 3: Score 3 = Neither agree or disagree
# Procedure: Three groups of women were recruited to evaluate and compare the efficacy of three anti-aging test products (targeting the periorbital eye area) intended to reduce the appearance of fine lines, wrinkles in the outer canthus of the eyes (crow's feet area) over a 12 week period. Wrinkle assessment was conducted instrumentally using a Visioscan image analysis system. Effectiveness of the test product was evaluated using panelist self-assessment via questionnaire responses comprised of 3-4 questions (Q1, Q2, Q3 & Q4). Each stage in the progression of treatments was photographically documented using a High Resolution Scientifically Matched Photography technique. Image analysis was utilized to quantify changes in fine lines and crow's feet condition observed in the Scientifically Matched Photographs.
# Subject Selection: • Number: Six subjects (two per group) to complete the study. • Sex: Females • Race: Caucasian/Asian/Hispanic • Age Range: 40 through 60 years old
# Test samples: • Topical 0.15% of Compound #222 in Oil (a 50/50 mixture of • Propylene Glycol Dicaprylate/Dicaprate and Caprylic/Capric Triglyceride) (Cohort 1) • Topical 0.15% of Compound #222 in PEG400 (Cohort 2) • Topical 0.05% of Compound #222 in PEG400 (Cohort 3)
# All subjects were instructed to use the test material once a day, as part of their daily skin care routine. Immediately following baseline evaluations, the subjects were issued the product with the following instructions:
# GROUP 1—Compound #222 Topical 0.15% in oil (Cohort 1): The subjects were instructed to hold the bottle at an angle such that the roller-ball was at bottom and apply the roller-ball to the periorbital area, including the crow's feet area, 2-3 times, starting from the area under the eye (and above the cheekbone) and moving up towards the outer tip of the eye-brow. After 2-3 rolls, they were able to see wetness on the treated area. This procedure was repeated for the other eye.
# GROUPS 2 & 3 Compound #222 Topical 0.15% in PEG (Cohort 2) & Compound #222 Topical 0.05% in PEG (Cohort 3): The subjects were instructed to hold the dispenser upright with one hand and with the tip of the index finger on the pump (similar to holding a spray container), pour a small amount of the product into the palm of their other hand by pumping once or twice. The product was then applied on to the periorbital area, including the crow's feet area, of both eyes with their index finger.
# […] After acclimating to ambient conditions, High Resolution Scientifically Matched Photographs were be taken and biophysical measurements (Surface Evaluation of Living Skin via Visioscan) were repeated using the standard template to identify test sites on the face. In addition (during the acclimation period) all participants were be asked to fill out a self-assessment questionnaire.
# The source data was Visioscan and PhotoGrammetrix Image Analysis readings along with subjective assessments, which were totaled and reported as average scores. Photographs were placed side by side as to compare the photographs of before and after application of the test product in the eye area. Wrinkle reduction analysis source data consisted of crow's feet area quantification in relative units (px), collected at baseline and, the week 2, 4, 8 and 12 evaluations. The data obtained via Visioscan and from PhotoGrammetrix Image Analysis was quoted as % differences from baseline at each of the previously described time points. A paired t-test analysis was conducted in order to compare the results of post test product application measurements to baseline measurements where applicable. Statistical significance was established if p≤(α=0.05) was calculated.
# [1] = Day 7, Topical 0.05% in PEG (Cohort 3)
# [2] = Day 7, Topical 0.15% in Oil (Cohort 1)
# [3] = Day 7, Topical 0.15% in PEG (Cohort 2)
# [4] = Day 14, Topical 0.05% in PEG (Cohort 3)
# [5] = Day 14, Topical 0.15% in Oil (Cohort 1)
# [6] = Day 14, Topical 0.15% in PEG (Cohort 2)
structure (smiles),measurement,setting,value
O=C(CCC(=O)c1ccc2c(c1)OCO2)c1ccccc1 [#222],"Q2 appearance of my skin around either of my eyes, Average Score",[1],1.50
same,"Q4 any discomfort, other than slight tingling, in the treated area during the study, Average Score",[1],1.00
same,"Q1 My wrinkles in the eye area have improved, Average Score",[1],2.00
same,"Q3 how do you feel about the treated area surrounding your eyes and the appearance of wrinkles, Average Score",[1],2.00
same,"Q2 appearance of my skin around either of my eyes, Average Score",[2],2.50
same,"Q4 any discomfort, other than slight tingling, in the treated area during the study, Average Score",[2],1.50
same,"Q1 My wrinkles in the eye area have improved, Average Score",[2],3.50
same,"Q3 how do you feel about the treated area surrounding your eyes and the appearance of wrinkles, Average Score",[2],2.50
same,"Q2 appearance of my skin around either of my eyes, Average Score",[3],2.50
same,"Q4 any discomfort, other than slight tingling, in the treated area during the study, Average Score",[3],1.50
same,"Q1 My wrinkles in the eye area have improved, Average Score",[3],3.50
same,"Q3 how do you feel about the treated area surrounding your eyes and the appearance of wrinkles, Average Score",[3],2.50
same,"Q2 appearance of my skin around either of my eyes, Average Score",[4],1.50
same,"Q4 any discomfort, other than slight tingling, in the treated area during the study, Average Score",[4],1.00
same,"Q1 My wrinkles in the eye area have improved, Average Score",[4],1.50
same,"Q3 how do you feel about the treated area surrounding your eyes and the appearance of wrinkles, Average Score",[4],1.50
same,"Q2 appearance of my skin around either of my eyes, Average Score",[5],2.50
same,"Q4 any discomfort, other than slight tingling, in the treated area during the study, Average Score",[5],1.50
same,"Q1 My wrinkles in the eye area have improved, Average Score",[5],3.00
same,"Q3 how do you feel about the treated area surrounding your eyes and the appearance of wrinkles, Average Score",[5],2.00
same,"Q2 appearance of my skin around either of my eyes, Average Score",[6],2.50
same,"Q4 any discomfort, other than slight tingling, in the treated area during the study, Average Score",[6],2.50
same,"Q1 My wrinkles in the eye area have improved, Average Score",[6],3.00
same,"Q3 how do you feel about the treated area surrounding your eyes and the appearance of wrinkles, Average Score",[6],3.00
same,"Q2 appearance of my skin around either of my eyes, % Responders Score 1",[1],50%
same,"Q2 appearance of my skin around either of my eyes, % Responders Score 1",[2],0%
same,"Q2 appearance of my skin around either of my eyes, % Responders Score 1",[3],0%
same,"Q2 appearance of my skin around either of my eyes, % Responders Score 1",[4],50%
same,"Q2 appearance of my skin around either of my eyes, % Responders Score 1",[5],0%
same,"Q2 appearance of my skin around either of my eyes, % Responders Score 1",[6],0%
same,"Q4 any discomfort, other than slight tingling, in the treated area during the study, % Responders Score 1",[1],100%
same,"Q4 any discomfort, other than slight tingling, in the treated area during the study, % Responders Score 1",[2],50%
same,"Q4 any discomfort, other than slight tingling, in the treated area during the study, % Responders Score 1",[3],50%
same,"Q4 any discomfort, other than slight tingling, in the treated area during the study, % Responders Score 1",[4],100%
same,"Q4 any discomfort, other than slight tingling, in the treated area during the study, % Responders Score 1",[5],50%
same,"Q4 any discomfort, other than slight tingling, in the treated area during the study, % Responders Score 1",[6],50%
same,"Q1 My wrinkles in the eye area have improved, % Responders Score 1",[1],0%
same,"Q1 My wrinkles in the eye area have improved, % Responders Score 1",[2],0%
same,"Q1 My wrinkles in the eye area have improved, % Responders Score 1",[3],0%
same,"Q1 My wrinkles in the eye area have improved, % Responders Score 1",[4],50%
same,"Q1 My wrinkles in the eye area have improved, % Responders Score 1",[5],0%
same,"Q1 My wrinkles in the eye area have improved, % Responders Score 1",[6],0%
same,"Q3 how do you feel about the treated area surrounding your eyes and the appearance of wrinkles, % Responders Score 1",[1],50%
same,"Q3 how do you feel about the treated area surrounding your eyes and the appearance of wrinkles, % Responders Score 1",[2],0%
same,"Q3 how do you feel about the treated area surrounding your eyes and the appearance of wrinkles, % Responders Score 1",[3],0%
same,"Q3 how do you feel about the treated area surrounding your eyes and the appearance of wrinkles, % Responders Score 1",[4],50%
same,"Q3 how do you feel about the treated area surrounding your eyes and the appearance of wrinkles, % Responders Score 1",[5],50%
same,"Q3 how do you feel about the treated area surrounding your eyes and the appearance of wrinkles, % Responders Score 1",[6],0%
same,"Q1 My wrinkles in the eye area have improved, % Responders Score 2",[1],100%
same,"Q1 My wrinkles in the eye area have improved, % Responders Score 2",[2],50%
same,"Q1 My wrinkles in the eye area have improved, % Responders Score 2",[3],0%
same,"Q1 My wrinkles in the eye area have improved, % Responders Score 2",[4],50%
same,"Q1 My wrinkles in the eye area have improved, % Responders Score 2",[5],50%
same,"Q1 My wrinkles in the eye area have improved, % Responders Score 2",[6],50%
same,"Q2 appearance of my skin around either of my eyes, % Responders Score 2",[1],50%
same,"Q2 appearance of my skin around either of my eyes, % Responders Score 2",[2],50%
same,"Q2 appearance of my skin around either of my eyes, % Responders Score 2",[3],50%
same,"Q2 appearance of my skin around either of my eyes, % Responders Score 2",[4],50%
same,"Q2 appearance of my skin around either of my eyes, % Responders Score 2",[5],50%
same,"Q2 appearance of my skin around either of my eyes, % Responders Score 2",[6],50%
same,"Q3 how do you feel about the treated area surrounding your eyes and the appearance of wrinkles, % Responders Score 2",[1],0%
same,"Q3 how do you feel about the treated area surrounding your eyes and the appearance of wrinkles, % Responders Score 2",[2],50%
same,"Q3 how do you feel about the treated area surrounding your eyes and the appearance of wrinkles, % Responders Score 2",[3],50%
same,"Q3 how do you feel about the treated area surrounding your eyes and the appearance of wrinkles, % Responders Score 2",[4],50%
same,"Q3 how do you feel about the treated area surrounding your eyes and the appearance of wrinkles, % Responders Score 2",[5],0%
same,"Q3 how do you feel about the treated area surrounding your eyes and the appearance of wrinkles, % Responders Score 2",[6],50%
same,"Q4 any discomfort, other than slight tingling, in the treated area during the study, % Responders Score 2",[1],0%
same,"Q4 any discomfort, other than slight tingling, in the treated area during the study, % Responders Score 2",[2],50%
same,"Q4 any discomfort, other than slight tingling, in the treated area during the study, % Responders Score 2",[3],50%
same,"Q4 any discomfort, other than slight tingling, in the treated area during the study, % Responders Score 2",[4],0%
same,"Q4 any discomfort, other than slight tingling, in the treated area during the study, % Responders Score 2",[5],50%
same,"Q4 any discomfort, other than slight tingling, in the treated area during the study, % Responders Score 2",[6],0%
same,"Q1 My wrinkles in the eye area have improved, % Responders Score 3",[1],0%
same,"Q1 My wrinkles in the eye area have improved, % Responders Score 3",[2],0%
same,"Q1 My wrinkles in the eye area have improved, % Responders Score 3",[3],50%
same,"Q1 My wrinkles in the eye area have improved, % Responders Score 3",[4],0%
same,"Q1 My wrinkles in the eye area have improved, % Responders Score 3",[5],0%
same,"Q1 My wrinkles in the eye area have improved, % Responders Score 3",[6],0%
